# Values quoted from earlier work as cited in patent US20120263806A1, “Uses of North American Ginseng Fractions for Treating Leukemia” (priority 2007, published 2012).
# Columns and labels:
# [1] = test system: telomerase activity of K562 cells; details: at proper concentrations and exposure time
# [2] = test system: Adriamycin (ADM)-resistant P388 leukemia cells (P388/ADM)
smiles,measurement,setting,value
"O=P1(N(CCCl)CCCl)NCCCO1 (stereo not shown) [CTX, cyclophosphamide]",Telomerase activity of K562 cells,[1],completely inhibit
CC(C)=CCC[C@](C)(O)[C@H]1CC[C@]2(C)[C@@H]1[C@H](O)C[C@@H]1[C@@]3(C)CC[C@H](O)C(C)(C)[C@@H]3[C@@H](O)C[C@]12C [20(8) protopanaxatriol],"Cytotoxicity of the anti-cancer drugs (DAU, VBL) in P388/ADM cells",[2],greatly enhanced
CC(C)=CC/C=C(/C)[C@H]1CC[C@]2(C)[C@@H]1[C@H](O)C[C@@H]1[C@@]3(C)CC[C@H](O)C(C)(C)[C@@H]3[C@@H](O)C[C@]12C [Quasipanaxatriol],"Cytotoxicity of the anti-cancer drugs (DAU, VBL) in P388/ADM cells",[2],greatly enhanced
same,Resistance indices (ratios of IC50 values for P388/ADM and P388 parental cells) for DAU and VBL,[2]; 50 μM,decreased significantly
CC(C)=CCC[C@](C)(O)[C@H]1CC[C@]2(C)[C@@H]1[C@H](O)C[C@@H]1[C@@]3(C)CC[C@H](O[C@@H]4O[C@H](CO)[C@@H](O)[C@H](O)[C@H]4O)C(C)(C)[C@@H]3CC[C@]12C [ginsenoside Rh2],"Cytotoxicity of the anti-cancer drugs (DAU, VBL) in P388/ADM cells",[2],greatly enhanced
CC(C)=CCC[C@](C)(O)[C@H]1CC[C@]2(C)[C@@H]1[C@H](O)C[C@@H]1[C@@]3(C)CC[C@H](O[C@@H]4O[C@H](CO)[C@@H](O)[C@H](O)[C@H]4O[C@@H]4O[C@H](CO)[C@@H](O)[C@H](O)[C@H]4O)C(C)(C)[C@@H]3CC[C@]12C [Rg(3)],TPA-induced activation of NF-kappaβ in HL-60 cells,NF-kappaβ,inhibited
CC(C)=CCC[C@](C)(O[C@@H]1O[C@H](CO)[C@@H](O)[C@H](O)[C@H]1O)[C@H]1CC[C@]2(C)[C@@H]1[C@H](O)C[C@@H]1[C@@]3(C)CC[C@H](O)C(C)(C)[C@@H]3CC[C@]12C [compound K],"Cytotoxicity of the anti-cancer drugs (DAU, VBL) in P388/ADM cells",[2],greatly enhanced
